Results on 2 compounds are retold here after paper PMC5377235, “A new target region for changing the substrate specificity of amine transaminases” (Scientific Reports, 2015).

One test concerns the target T1, ATA-117-Rd11 (Arthrobacter sp. KNK168, UniProt F7J696, S8P/Y60F/L61Y/H62T/V65A/V69T/D81G/M94I/I96L/F122M/S124T/S126T/G136F/Y150S/V152C/A169L/V199I/A209L/G215C/G217N/S223P/L269P/L273Y/T282S/A284G/P297S/S321P).
T1 construct: gene TAS; synthetic gene, pET28a N-His tag, thrombin cleaved; E. coli; homodimer
Nature of the test: X-ray crystal structure, […] Å. It is filed as binding. Particulars: covalent; internal aldimine.

The target in test [1] is T2, Ab-R-ATA (Arthrobacter sp. KNK168, UniProt F7J696, R138Q, form not given).
T2 construct: gene TAS; full length, 330 amino acids, no tag, pUCNT vector, E. coli Rosetta (DE3); homodimer, active site formed with loop 129-145 of the other protomer
Nature of the test: HPLC of acetophenone formed, initial kinetics. It is filed as biochemical. Particulars: 10 mM (R)-1-phenylethylamine as amino donor, 0.5 mM PLP, 100 mM Tris-HCl pH 8.5, 30 °C. From the text: (§1) HPLC of acetophenone formed, initial kinetics on Ab-R-ATA | The kcat/Km values for pyruvate of the R138A and the R138Q mutants

The target of test [2] is T3, Ab-R-ATA (Arthrobacter sp. KNK168, UniProt F7J696).
T3 construct: gene TAS; full length, 330 amino acids, no tag, pUCNT vector, E. coli Rosetta (DE3); homodimer, active site formed with loop 129-145 of the other protomer
Nature of the test: HPLC of acetophenone formed, initial kinetics. In kind it is biochemical. Particulars: 10 mM (R)-1-phenylethylamine as amino donor, 0.5 mM PLP, 100 mM Tris-HCl pH 8.5, 30 °C.
Excerpt: as §1

With `Cc1ncc(COP(=O)(O)O)c(C=O)c1O` [PLP], the “X-ray crystal structure, 2.20 Å” value on ATA-117-Rd11 was “The cofactor PLP in the active site is shown as green sticks”. As usually defined, the Km is the concentration of substrate that gives half-maximal velocity. On to `CC(=O)C(=O)O` [pyruvate], for which the values for the Michaelis constant (Km) on Ab-R-ATA [1] and at Ab-R-ATA [2] were 66 ± 3 mM and 5.8 ± 0.1 mM, respectively.
